Measured values reported in patent publication US20050004167A1, “Branched chain amino acid-dependent aminotransferase inhibitors and their use in the treatment of neurodegenerative diseases” (WARNER-LAMBERT COMPANY LLC, priority 2001, published 2005).
Several values for one entry are separate records, joined by “and”; a condition that tells them apart may be missing. Equal entries are not always repeated.

Key:
[1] = molecular target: T1, human Branched Chain Amino Acid Aminotransferase cytosolic form (hBCATc) (Homo sapiens, UniProt P54687); test: In vitro coupled enzyme assay (glutamate dehydrogenase, NADH formation), human BCATc; type: biochemical; conditions: recombinant human BCATc, 37° C., 25 mM phosphate buffer pH 7.8; several values in a cell = repeat determinations; read-out: RhBCATc
T1 construct: made in house; host or cells: E. coli BL21(DE3)
T1 sequence (P54687 1-386): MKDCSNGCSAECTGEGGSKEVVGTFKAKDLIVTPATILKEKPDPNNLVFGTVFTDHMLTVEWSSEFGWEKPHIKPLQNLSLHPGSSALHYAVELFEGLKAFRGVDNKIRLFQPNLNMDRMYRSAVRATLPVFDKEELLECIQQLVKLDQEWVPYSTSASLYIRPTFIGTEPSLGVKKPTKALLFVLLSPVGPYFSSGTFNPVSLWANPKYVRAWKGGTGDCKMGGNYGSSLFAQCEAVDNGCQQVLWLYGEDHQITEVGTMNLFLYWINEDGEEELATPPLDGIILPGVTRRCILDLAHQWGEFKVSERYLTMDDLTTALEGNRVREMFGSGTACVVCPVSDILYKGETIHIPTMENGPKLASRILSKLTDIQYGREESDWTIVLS
Method: In vitro enzyme assay—human Branched Chain Amino Acid Aminotransferase cytosolic form (hBCATc) and mitochondrial form (hBCATm) as well as rat BCAT cytosolic form were assayed at 37° C. in 25 mM phosphate buffer pH 7.8. In addition, 2 mM DTT and 12.5 mM […] were added to the assay mixture. A coupling enzyme assay was used to monitor the production of glutamate. The formation of NADH from NAD+ at […] was followed on a 96-well plate Molecular Devices plate reader.
The following components were used in this coupled assay: 4 mM ADP, 1 mM NAD+, 750 μM L-Leucine, 500 μM α-ketoglutarate, 10 μM pyridoxal phosphate, 1 unit glutamate dehydrogenase, and 1.25 μg of the appropriate BCAT enzyme. Inhibitions by compounds were assayed by adding various concentrations to this coupled assay procedure as a DMSO stock up to a 5% v/v DMSO/buffer ratio.
Enzyme Preparation—humanBCATc and ratBCATc were expressed in BL21(DE3) cells. A growing culture of cells was induced with 1 mM IPTG at room temperature overnight. These cells were harvested by centrifugation at 10,000 g for 20 minutes. The supernatant was discarded, and the cells were stored at −80° C. until needed. The protein was purified by the following method. The cell paste was resuspended in extraction buffer (0.1 M phosphate, pH 8.0, with 0.01 M Tris-HCL and 5 mM TCEP and then lysed on a French Press at 1000 psi. The lysate was centrifuged at 10,000 g for 15 minutes, and the pellet was discarded. The supernatant was loaded onto a Hitrap Chelating column previously charged with 0.1 M NiSO4 and washed with 3 to 4 column volumes of extraction buffer. The column was then washed with 0.01 Tris, pH 7.5, 10% glycerol, 150 mM NaCl, 5 mM TCEP for two column volumes. The column was then further washed with two column volumes of 0.1 M phosphate, pH 6.0, 0.01 M Tris, 10% glycerol and 750 mM NaCl. Finally, the column was washed with two column volumes of the same buffer plus 50 mM imidazole. The BCAT enzyme was then eluted with the same buffer but with 350 mM imidazole. The eluant was then dialyzed overnight against 10 mM phosphate buffer pH 8.0, 10% glycerol, and 5 mM TCEP. The dialyzed protein was then loaded onto a Q-sepharose column and eluted using a salt gradient. Active fractions were collected and further purified on a Superose-12 column to yield pure BCAT protein.

melting point [°C] | IC50 [1] | SMILES
198 to 200 | – | O=C(NNS(=O)(=O)c1ccccc1)c1nccc2ccccc12 (hydrate or solvate) [Example 152, Isoquinoline-1-carboxylic acid 2-(phenylsulfonyl)hydrazide]
209 to 211 | – | O=C(NNS(=O)(=O)c1ccccc1)c1ccc2[nH]ccc2c1 (hydrate or solvate) [Example 153, 1H-Indole-5-carboxylic acid 2-(phenylsulfonyl)hydrazide]
249 to 250 | – | O=C(NNS(=O)(=O)c1ccccc1)c1cnc2ccccc2c1 (hydrate or solvate) [Example 154, Quinoline-3-carboxylic acid 2-(phenylsulfonyl)hydrazide]
202 to 203 | > 100 µM | O=C(NNS(=O)(=O)c1c(Cl)cccc1Cl)c1ccc2oc3ccccc3c2c1 [Example 28, 2-Dibenzofurancarboxylic acid 2-[(2,6-dichlorophenyl)sulfonyl]hydrazide]
206.4 to 207.3 | 3.44 µM | O=C(NNS(=O)(=O)c1ccccc1Br)c1cc2cc(Cl)ccc2o1 [Example 44, 2-Benzofurancarboxylic acid, 5-chloro-2-[(2-bromophenyl)sulfonyl]hydrazide]
190.5 to 192 | 1.08 µM and 0.7 µM | Cc1ccccc1S(=O)(=O)NNC(=O)c1cc2cc(Cl)ccc2o1 [Example 46, 2-Benzofurancarboxylic acid, 5-chloro-2-[(2-methylphenyl)sulfonyl]hydrazide]
236.7 to 237.4 | 17 µM | O=C(NNS(=O)(=O)c1ccccc1C(F)(F)F)c1ccc2ncccc2c1 [Example 134, 6-Quinolinecarboxylic acid, 2-[(2-trifluoromethylphenyl)sulfonyl]hydrazide]
243.5 to 243.9 | 40 µM | O=C(NNS(=O)(=O)c1ccccc1OC(F)(F)F)c1ccc2ncccc2c1 [Example 136, 6-Quinolinecarboxylic acid, 2-[(2-trifluoromethoxyphenyl)sulfonyl]hydrazide]
241.9 to 242.6 | > 100 µM | O=C(NNS(=O)(=O)c1ccc(F)c(Cl)c1)c1ccc2ncccc2c1 [Example 140, 6-Quinolinecarboxylic acid, 2-[(3-chloro-4-fluorophenyl)sulfonyl]hydrazide]
245 to 245.7 | > 100 µM | O=C(NNS(=O)(=O)c1ccc(F)c(Cl)c1)c1cnc2ccccc2c1 [Example 141, 3-Quinolinecarboxylic acid, 2-[(3-chloro-4-fluorophenyl)sulfonyl]hydrazide]
201.9 to 202.7 | 46 µM | COc1cccc(S(=O)(=O)NNC(=O)c2ccc3ncccc3c2)c1 [Example 142, 6-Quinolinecarboxylic acid, 2-[(3-methoxyphenyl)sulfonyl]hydrazide]
226.9 to 227.2 | 80 µM | COc1cccc(S(=O)(=O)NNC(=O)c2cnc3ccccc3c2)c1 [Example 143, 3-Quinolinecarboxylic acid, 2-[(3-methoxyphenyl)sulfonyl]hydrazide]
216 to 216.8 | 29 µM | O=C(NNS(=O)(=O)c1cccc(Br)c1)c1ccc2ncccc2c1 [Example 144, 6-Quinolinecarboxylic acid, 2-[(3-bromophenyl)sulfonyl]hydrazide]
231.5 to 232.3 | 80 µM | O=C(NNS(=O)(=O)c1cccc(Br)c1)c1cnc2ccccc2c1 [Example 145, 3-Quinolinecarboxylic acid, 2-[(3-bromophenyl)sulfonyl]hydrazide]
223 to 224 | – | CCOc1cccc2cc(C(=O)NNS(=O)(=O)c3ccccc3)oc12 [Example 147, 7-Ethoxy-2-benzofurancarboxylic acid 2-(phenylsulfonyl)-hydrazide]
223 to 224 | – | O=C(NNS(=O)(=O)c1ccccc1)c1cc2cccc(Cl)c2o1 [Example 148, 7-Chloro-benzofuran-2-carboxylic acid 2-(phenylsulfonyl)hydrazide]
240.2 to 241.1 | – | Nc1ccc2[nH]c(C(=O)NNS(=O)(=O)c3ccccc3)cc2c1 [Example 150, 2-Indolecarboxylic acid, 5-amino-2-phenylsulfonyl hydrazide]
153 to 156 | > 100 µM | O=C(NNS(=O)(=O)c1ccccc1)c1ccnc2ccccc12 [Example 155, Quinoline-4-carboxylic acid 2-(phenylsulfonyl)hydrazide]
261.5 to 261.8 | 8.7 µM | O=C(NNS(=O)(=O)c1ccccc1)c1cc2cc(NS(=O)(=O)c3ccccc3)ccc2o1 [Example 157, 2-Benzofurancarboxylic acid, 5-(phenylsulfonylamino)-, 2-(phenylsulfonyl)hydrazide]
255.4 to 256.1 | 26 µM | CS(=O)(=O)Nc1ccc2oc(C(=O)NNS(=O)(=O)c3ccccc3)cc2c1 [Example 158, 2-Benzofurancarboxylic acid, 5-(methylsulfonylamino)-, 2-(phenylsulfonyl)hydrazide]
239.3 to 239.9 | – | O=C(NNS(=O)(=O)c1ccc([N+](=O)[O-])cc1)c1ccc2oc3ccccc3c2c1 [Example 159, 2-Dibenzofurancarboxylic acid, 2-(4-nitrophenyl)sulfonyl hydrazide]
213 to 214 | – | COc1ccc(S(=O)(=O)Nc2ccc3oc(C(=O)NNS(=O)(=O)c4ccccc4)cc3c2)cc1 [Example 160, 2-Benzofurancarboxylic acid, 5-(4-methoxyphenylsulfonylamino)-, 2-(phenylsulfonyl)hydrazide]
181 to 183 | – | Cc1ccc(S(=O)(=O)Nc2ccc3oc(C(=O)NNS(=O)(=O)c4ccccc4)cc3c2)cc1 [Example 161, 2-Benzofurancarboxylic acid, 5-(4-methylphenylsulfonylamino)-, 2-(phenylsulfonyl)hydrazide]
223.4 to 224.1 | – | O=C(NNS(=O)(=O)c1ccccc1[N+](=O)[O-])c1ccc2oc3ccccc3c2c1 [Example 162, 2-Dibenzofurancarboxylic acid, 2-[(2-nitrophenyl)sulfonyl]hydrazide]
169 to 169.8 | – | CCCCCc1ccc(S(=O)(=O)Nc2ccc3oc(C(=O)NNS(=O)(=O)c4ccccc4)cc3c2)cc1 [Example 163, 2-Benzofurancarboxylic acid, 5-(4-pentylphenylsulfonylamino)-, 2-(phenylsulfonyl)hydrazide]
94.7 to 95.5 | – | CC(C)Nc1ccc2oc(C(=O)NNS(=O)(=O)c3ccccc3)cc2c1 [Example 164, 2-Benzofurancarboxylic acid, 5-(N-isopropylamino)-, 2-(phenylsulfonyl)hydrazide]
160.4 to 161.1 | – | CCCc1ccc(S(=O)(=O)Nc2ccc3oc(C(=O)NNS(=O)(=O)c4ccccc4)cc3c2)cc1 [Example 165, 2-Benzofurancarboxylic acid, 5-(4-propyllphenylsulfonylamino)-, 2-(phenylsulfonyl)hydrazide]
217.9 to 218.4 | – | Nc1ccccc1S(=O)(=O)NNC(=O)c1ccc2oc3ccccc3c2c1 [Example 166, 2-Dibenzofurancarboxylic acid, 2-[(2-aminophenyl)sulfonyl]hydrazide]
268.2 to 269.1 | – | O=C(NNS(=O)(=O)c1ccccc1)c1cc2cc([N+](=O)[O-])ccc2[nH]1 [Example 170, 2-Indolecarboxylic acid, 5-nitro-2-phenylsulfonyl hydrazide]
79.1 to 79.9 | – | O=C(NNS(=O)(=O)c1ccccc1)c1cc2cc(Cl)ccc2[nH]1 [Example 171, 2-Indolecarboxylic acid, 5-chloro-2-phenylsulfonyl hydrazide]
